# Like-named read-outs stand apart in the source and are kept apart here.
# Columns and labels:
# [1] = LogD7.4 by low-volume octanol/PBS shake-flask method; format: physicochemical; conditions: n-octanol/PBS; octanol-water partition coefficient, shake-flask method at pH 7.4
# Method: Distribution ratios (LogD7.4) were determined by a low-volume octanol/PBS shake-flask method. Briefly, saturated solutions of octanol and PBS were prepared by mixing equal volumes of n-octanol and PBS (pH 7.4) before being left for three days. The octanol and PBS phases were then carefully separated and left to stand for at least 24 h. Stock solutions (0.1–0.5 mM) of each compound were prepared in octanol saturated with PBS. The stock solutions were diluted with octanol saturated with PBS containing and inter-assay control (acridone) to a final compound concentration of 50 μM. Aliquots (450 μL) were then taken in triplicate, and 450 μL of PBS saturated with octanol was added into amber tubes. The tubes were then sealed in parafilm and rotated for 90 min at 30 rpm to equilibrate. After centrifugation (15,000× g, 5 min, 20°C) the octanol and PBS phases were separated into different tubes and the octanol phase diluted with methanol (1:5 v/v). Both phases were analyzed by HPLC (diode-array detector at 364 ± 10 nm) by injecting 50 μL of the PBS phase and 15 μL of the diluted octanol phase. The results were then expressed as the log ratio of the peak areas obtained from the octanol and PBS phases corrected for dilution and injection volume.
# [2] = non-tumour bearing, cited from earlier work
# in vivo = format: in vivo, mice; conditions: for MTD: NIH-III nude, mouse, in vivo, ip, i.p., read-out: Maximum tolerated dose (MTD)
# Description: NfsA_Ec potency and bystander effect from the diffusion of activated metabolites is only one determinant of the therapeutic utility of a GDEPT prodrug. Overall, anti-tumor activity will also depend on the efficiency of metabolic activation at well-tolerated prodrug doses, determined mainly by the relationship between host toxicity and plasma/tumor pharmacokinetics. Like PR-104A, the three lead prodrugs (1, 2, and 6) contain an alcohol side chain that requires addition of a phosphate ester to increase water solubility for in vivo applications. […] Employing identical methods, we determined the MTD of compounds 2-P and 6-P to be 1000 µmol/kg and 1330 µmol/kg, respectively (data summary in Table S1). In preparation for efficacy testing against H1299 xenografts, we next determined the MTD of each compound (1-P, 2-P, and 6-P) in H1299 tumor-bearing mice to be 1330 µmol/kg, 750 µmol/kg, and 1330 µmol/kg, respectively (Table S1). In each case 1-P, 2-P, and 6-P administration (i.p.) was well tolerated, with no evidence of morbidity or mortality, accompanied by a minimal body weight loss (BWL) nadir of −2.2%, −4.0%, and −5.3%, respectively (MTD defined as <−15% average BWL).
# (§1) An estimated starting dose was determined from related compounds. Animals were promptly euthanized if body weight loss exceeded 20% or if there were clinical signs of severe morbidity. The MTD was defined as the highest dose, at which all animals survived (death rate < 1/6) with no unacceptable morbidity, and where the next dose increment had caused at least one death. Tumors were inoculated onto the flanks of NIH-III nude mice by subcutaneous injection of 10^7 H1299 cells. Tumor-bearing mice were randomized to treatment groups (n = 5 mice per group) when tumors reached treatment size (300–350 mm^3) and injected with a single intraperitoneal dose of pre-prodrug. Tumor size and body weights were measured regularly. Tumor volume was calculated as π(Lxw^2)/6, where L is the major axis and w is the perpendicular minor axis. Animals were euthanized when the tumor volume had increased fourfold relative to pre-treatment volume (RTV4, survival endpoint) or if body weight loss exceeded 20% of the pre-treatment value. Kaplan–Meier plots were constructed, and median time to endpoint was calculated. Treatment efficacy was assessed by comparing the median survival time with untreated animals using the Log-rank test p-test (Sigmaplot version 11.0).
# Supplementary Table S1. Summary of maximum tolerated dose of test compounds
# Footnotes: BWL nadir % = body weight loss percentage (time independent nadir). HEP = humane endpoint. * =
# Non-tumour bearing H1299 tumour bearing
# [3] = system: mixed H1299 xenograft containing 28% NfsA_Ec cells and 72% WT cells; experiment: Tumor growth delay assay, mixed H1299 xenograft; format: in vivo, mice; conditions: for Survival time compared to PR-104 treated tumors: single i.p. dose: 1-P 1330 µmol/kg
# Method: These ratios were broadly similar to those observed in HCT116 cells (Figure 2). A mixed H1299 xenograft model containing a minority percentage (28 ± 3.3%) of NfsA_Ec-expressing cells was used in order to rank the efficacy of the prodrugs in vivo. A model such as this necessitates the presence of a robust bystander effect to achieve a tumor growth delay. Tumor-bearing mice were administered a single intraperitoneal dose of prodrugs 1-P, 2-P, and 6-P at the H1299 tumor-bearing MTD. PR-104 was administered at 388 µmol/kg, the human equivalent dose (HED) in mice that provides a plasma AUCfree of PR-104A (38 µM-h) that equates to the human Q3W MTD of 1100 mg/m^2 [22].
# as §1
# Figure 5 In vivo efficacy of the three lead pre-prodrug compounds in a mixed H1299 xenograft containing 28% NfsA_Ec cells and 72% WT cells. (A) Tumor growth and (B) survival analysis of mice bearing 250 mm^3 H1299 tumors treated with a single intraperitoneal dose of prodrug on day 0. N = 5 animals per group. Control = PBS, PR-104 = 388 µmol/kg; 1-P = 1330 μmol/kg; 2-P = 750 μmol/kg; and 6-P = 1330 μmol/kg. Survival endpoint was 4× start volume (RTV4).
# SiHa xenografts = experiment: Tumor excision assay, clonogenic cell kill of SiHa xenografts; format: in vivo, mice; conditions: 18 h after treatment, PR-104 380 µmol/kg i.p., 6-P 1330 µmol/kg i.p.
# Method: The sensitivity of four cancer cell lines to prodrug 6 was determined under aerobic or anoxic conditions using an anti-proliferative IC50 assay. […] We also evaluated the hypoxic activity of 6-P versus PR-104 in vivo using a SiHa xenograft model (Figure 6B).
# When tumors reached treatment size (>400 mm^3), mice were treated with drug by a single intraperitoneal injection of pre-prodrug or vehicle. Mice treated with ionizing radiation were exposed to 10 Gray prior to drug treatment, using a cobalt-60 source from an Eldorado G unit. Animals were euthanized 18 h after drug treatment, and tumors were excised and homogenized using sterile scissors until a fine mince was obtained. Following enzymatic dissociation (2.5 mg/mL pronase, 1 mg/mL collagenase, and 0.2 mg/mL DNAase in αMEM + 10% FBS + 1% P/S, 1 mL per 50 mg), cells were plated at concentrations of 10^2–10^5 cells per 60 mm dish and grown for 10 days before colonies were stained with methylene blue (2 g/L in 50% aqueous alcohol). Colonies containing >50 cells were counted as clonogenic survivors. From these values, plating efficiency (colonies/cells plated), number of clonogens per gram of tumor tissue (plating efficiency × total cells), and log cell kill relative to vehicle treated controls (log clonogens per gram) were calculated. Statistical analysis was undertaken using Holm–Sidak’s one-way ANOVA (Sigmaplot version 11.0).
# (A) In vitro anti-proliferative activity of 6 in various cancer cell lines under aerobic and anoxic conditions. IC50 values were determined as the concentration of drug required to inhibit cell growth by 50% of untreated controls following 4 h drug exposure and five days regrowth (mean ±SEM of three or more independent determinations). (B) Clonogenic cell kill of SiHa xenografts 18 h after treatment with hypoxia activated prodrugs PR-104 (380 µmol/kg, i.p.) or 6-P (1330 µmol/kg, i.p.) with or without 10 Gy radiation.
# [4] = H1299 tumour bearing, dose 1330 µmol/kg
# [5] = H1299 tumour bearing, dose 1780 µmol/kg
# [6] = H1299 tumour bearing, dose 750 µmol/kg
# [7] = H1299 tumour bearing, dose 1000 µmol/kg
# [8] = non-tumour bearing, dose 1000 µmol/kg
# [9] = non-tumour bearing, dose 1330 µmol/kg
# [10] = non-tumour bearing, dose 1780 µmol/kg
smiles,measurement,setting,value
CCN(CCO)C(=O)c1cc(N(CCBr)CCBr)c(S(C)(=O)=O)cc1[N+](=O)[O-] [Compound 3],logD at 90 min,[1],1.6
CCCS(=O)(=O)c1cc([N+](=O)[O-])c(C(=O)NCCO)cc1N(CCBr)CCBr [Compound 8],melting point,,128 to 129 °C
"CCS(=O)(=O)c1cc([N+](=O)[O-])c(C(=O)NCCO)cc1N(CCBr)CCBr [Compound 5, 5-(Bis(2-bromoethyl)amino)-N-(2-hydroxyethyl)-4-(ethylsulfonyl)-2-nitrobenzamide]",melting point,,137 to 140 °C
same,logD at 90 min,[1],1.5
CS(=O)(=O)c1cc([N+](=O)[O-])c(C(=O)NCCOP(=O)(O)O)cc1N(CCBr)CCBr [Compound 1-P],BWL nadir,[2]; dose 1780 µmol/kg,-2.8%
same,Deaths,[2]; dose 1780 µmol/kg,0
same,HEP (humane endpoint),[2]; dose 1780 µmol/kg,0
same,MTD (Yes/above),[2]; dose 1780 µmol/kg,Yes
same,BWL nadir,[2]; dose 2370 µmol/kg,-6.9%
same,Deaths,[2]; dose 2370 µmol/kg,2
same,HEP (humane endpoint),[2]; dose 2370 µmol/kg,0
same,MTD (Yes/above),[2]; dose 2370 µmol/kg,above
same,Maximum tolerated dose (MTD),"[2]; nude mice, i.p.",1780 µmol/kg
same,BWL nadir,in vivo; [4],-2.2%
same,Deaths,in vivo; [4],0
same,HEP (humane endpoint),in vivo; [4],0
same,MTD (Yes/above),in vivo; [4],Yes
same,BWL nadir,in vivo; [5],-7.6%
same,Deaths,in vivo; [5],1
same,HEP (humane endpoint),in vivo; [5],1
same,MTD (Yes/above),in vivo; [5],above
same,MTD,in vivo; H1299 tumor-bearing mice,1330 µmol/kg
same,Survival time compared to PR-104 treated tumors,[3]; 2-P 750 µmol/kg,did not produce an improvement in survival time
"CN(CCOP(=O)(O)O)C(=O)c1cc(N(CCBr)CCBr)c(S(C)(=O)=O)cc1[N+](=O)[O-] [Compound 2-P, 2-(5-(Bis(2-bromoethyl)amino)-N-methyl-4-(methylsulfonyl)-2-nitrobenzamido)ethyl dihydrogen phosphate]",BWL nadir,in vivo; [6],-4.0%
same,Deaths,in vivo; [6],0
same,HEP (humane endpoint),in vivo; [6],0
same,MTD (Yes/above),in vivo; [6],Yes
same,BWL nadir,in vivo; [7],-8.7%
same,Deaths,in vivo; [7],2
same,HEP (humane endpoint),in vivo; [7],0
same,MTD (Yes/above),in vivo; [7],above
same,MTD,in vivo; H1299 tumor-bearing mice,750 µmol/kg
same,MTD,"in vivo; nude mice, non-tumour bearing",1000 µmol/kg
same,BWL nadir,in vivo; [8],-2.5%
same,Deaths,in vivo; [8],0
same,HEP (humane endpoint),in vivo; [8],0
same,MTD (Yes/above),in vivo; [8],Yes
same,BWL nadir,in vivo; [9],-10.5%
same,Deaths,in vivo; [9],1
same,HEP (humane endpoint),in vivo; [9],1
same,MTD (Yes/above),in vivo; [9],above
same,Survival time compared to PR-104 treated tumors,[3]; 2-P 750 µmol/kg,did not produce an improvement in survival time
"CCS(=O)(=O)c1cc([N+](=O)[O-])c(C(=O)N(C)CCOP(=O)(O)O)cc1N(CCBr)CCBr [Compound 6-P, 2-(5-(bis(2-bromoethyl)amino)-4-(ethylsulfonyl)-N-methyl-2-nitrobenzamido)ethyl dihydrogen phosphate]","Log cell kill, in combination with radiotherapy",SiHa xenografts; 10 Gy radiation,4.05
same,"Log cell kill, single agent",SiHa xenografts,1.06
same,BWL nadir,in vivo; [4],-5.3%
same,Deaths,in vivo; [4],0
same,HEP (humane endpoint),in vivo; [4],0
same,MTD (Yes/above),in vivo; [4],Yes
same,MTD,in vivo; H1299 tumor-bearing mice,1330 µmol/kg
same,MTD,"in vivo; nude mice, non-tumour bearing",1330 µmol/kg
same,BWL nadir,in vivo; [9],-1.8%
same,Deaths,in vivo; [9],0
same,HEP (humane endpoint),in vivo; [9],0
same,MTD (Yes/above),in vivo; [9],Yes
same,Deaths,in vivo; [10],0
same,HEP (humane endpoint),in vivo; [10],2
same,MTD (Yes/above),in vivo; [10],above
same,Tumor growth delay compared to PR-104 treated group,"[3]; single i.p. dose, 6-P 1330 µmol/kg, PR-104 388 µmol/kg",92%
same,Tumor growth delay (median time to RTV4) compared to untreated controls,"[3]; single i.p. dose: PR-104 388 µmol/kg, 1-P 1330 µmol/kg, 2-P 750 µmol/kg, 6-P 1330 µmol/kg",156%
